Where “and” joins values, the source holds several entries; their conditions need not be identical. Equal values may be shown once.
Tests used:
CD11b+ monocytes = CD11b+ monocytes by flow cytometry, EDE mouse model; assay type: in vivo; details: for geometric mean number of CD11b+ monocytes: cornea
Method: The cornea, conjunctiva, and each tissue required for analysis were excised with scissors, incised, and shaken with 0.5 mg/mL collagenase type D at 37° C. for 1 hour. After pulverizing the tissue, the resulting mixture was passed through a cell strainer, centrifuged, and resuspended in phosphate-buffered saline containing 1% bovine serum albumin.
In DED, corneal barrier destruction and epithelial cell loss are accompanied by bone marrow and T cell infiltration. Activated T lymphocytes are the primary producers of Th-1 cytokines and interferon (IFN)-γ, which promote cell death at the ocular surface. To evaluate the anti-inflammatory effect of (PEG)-BHD1028 in the EDE mouse model, immune cells that play the role of inflammatory cell surface markers were quantified by flow cytometry with one animal per group.

[1] = Osmotic pressure of trehalose-mannitol composite formulations; assay type: physicochemical; details: trehalose-mannitol composite formulation
Method: The osmotic pressure of the trehalose-only formulations according to the (PEG)-BHD1028 content (see Table 5) and the osmotic pressure of the trehalose-mannitol composite formulations according to the (PEG)-BHD1028 content (see Table 6) were measured, and reflecting the experimental results, the osmolarity including the 0.5% (PEG)-BHD1028 concentration was adjusted to about 300 mOsm/kg.

BALB/3T3 clone A31 cells = assay: cells; assay type: cell-based
Method: To evaluate the phototoxicity of (PEG)-BHD1028, the potential phototoxicity of (PEG)-BHD1028 was measured in the BALB/3T3 clone A31 cells after UV exposure. The test substance and the positive control group (chlorpromazine hydrochloride; CPZ) were dissolved in a Hank's Balanced Salt Solution (HBSS) and then diluted with a Hank's Balanced Salt Solution (HBSS). The cells were trypsinized and counted. Thereafter, 1×10^4 cells per well were seeded in a 96-well plate and cultured for approximately 24 hours before treating the test samples. One hour after the sample treatment, the plate was irradiated with a UV irradiation system (UVA, 365 nm). After UV irradiation, the plate was incubated for 24 hours. The cell viability of the cultured cells was confirmed by measuring the absorbance at 540 nm using the neutral red staining method.

rabbit DED model = assay: Corneal fluorescein staining (CFS) score, rabbit DED model; assay type: in vivo; details: for dynamic slope of the CFS score change: from Day 1 to Day 10
Method: The rabbit DED model was induced by locally administrating 0.1% benzalkoniumchloride (BAC) drops (Sigma, St. Louis, MO, USA) twice a day (8 a.m. and 4 p.m.). Before the BAC treatment, the control group (baseline, naive) underwent standard dry eye clinical tests such as the Schirmer tear test (STT), TBUT, and corneal staining score (CSS) test. After the BAC treatment, the induction of dry eye syndrome was confirmed, and the test substance was administered for 10 days while maintaining the induction of dry eye syndrome. […] The test substance was locally applied bis in die (BID) to both eyes.
The subjects were evaluated by corneal staining, and the abnormal findings of the eyelids, cornea, and conjunctiva were recorded. After dropping 1 μL of the 1% fluorescent dye solution and washing with saline solution, and the cornea was observed under a slit-lamp microscope and scored to evaluate the degree of epithelial damage (degree of fluorescent staining).

[2] = test system: mouse experimental dry eye (EDE) model; assay: Tear volume, phenol red thread test, EDE mouse model; assay type: in vivo
Method: To confirm the pharmacological effect and appropriate dosage, a pilot study was first conducted with the mice. In addition, a rabbit DED (Dry Eye Disease) model with a large exposed facial area was evaluated in comparison with a mouse model. In the mouse experimental dry eye (EDE) model, scopolamine hydrobromide (Sigma-Aldrich. St. Louis, MO, USA) was subcutaneously injected three times a day (9 a.m., 1:30 p.m., 6 p.m.) in a room exposed to ventilation with an ambient humidity of less than 40% at 25±2° C. to induce DED.
The mice were randomly divided into five groups: (1) EDE (experimental dry eye) control mice without eye drops administration, (2) EDE mice treated with a vehicle (phosphate-buffered saline), (3) EDE mice treated with 0.001% (PEG)-BHD1028 (4) EDE mice treated with 0.01% (PEG)-BHD1028, and (5) EDE mice treated with 0.1% (PEG)-BHD1028. All the treatment groups received 2 μL of eye drops three times a day.
The tear secretion was measured for 20 seconds by contacting a cotton thread containing phenol red (Zone-Quick™; Oasis Medical, Inc., Glendora, CA, USA) to the conjunctival sac on the lateral canthus of the mouse eye. After measuring the length using a Nikon SMZ1500 microscope, the length substituted to the prescribed formula, and the value was converted to volume. The tear production of the rabbits was measured by a modified Schirmer tear test using Whatman 41 filter paper strips (Tianjin Jingming New Technology Development Co., Ltd., Tianjin, China) on Day 0, Day 5, and Day 10. Eye examination of the rabbits was performed under anesthesia. The anesthesia was performed under sedation by performing intramuscular injection of xylazine (3 mg/kg, Rompun®; Bayer Korea, Korea) and intramuscular injection of 10 mg/kgtiletamine/zolazepam (Zoletil®, Virbac Laboratories, Carros, France). After adding 1 drop of proparacaine HCl 0.5% (Alcaine®, Alcon Korea Ltd., Seoul, Korea), excess tears and eye drops were removed with Weck-cel® […]. The wet length (mm) of the paper strip was read after 5 minutes.
The tear volume of the mice was measured using the Phenol Red Thread (PRT) test on Day 5 and Day 10 after the treatment.

NH2-Tyr-Tyr-Phe-Ala-Tyr-His-Pro-Asn-Ile-Pro-Gly-Leu-Tyr-Tyr-Phe-COOH (H-YYFAYHPNIPGLYYF-OH; also: PEGylated, site not given here (mPEG), acetate salt) [(PEG)-BHD1028]
number of CD11b+ monocytes (CD11b+ monocytes; conjunctiva, 0.001%): 352.09 | number of CD11b+ monocytes (CD11b+ monocytes; conjunctiva, 0.01%): 330.48 | number of CD11b+ monocytes (CD11b+ monocytes; conjunctiva, 0.1%): 36.35 | geometric mean number of CD11b+ monocytes (CD11b+ monocytes; 0.001%): 178.06 | geometric mean number of CD11b+ monocytes (CD11b+ monocytes; 0.01%): 131.59 | geometric mean number of CD11b+ monocytes (CD11b+ monocytes; 0.1%): 126.25 | number of CD11b+ monocytes (CD11b+ monocytes; lacrimal gland, 0.001%): 84 | number of CD11b+ monocytes (CD11b+ monocytes; lacrimal gland, 0.01%): 74.60 | number of CD11b+ monocytes (CD11b+ monocytes; lacrimal gland, 0.1%): 60.48 | osmotic pressure, Mean ([1]; 0.5%): 301.00 mOsm/kg | osmotic pressure, single measurements #1-#3 ([1]; 0.5%): 301 mOsm/kg and 399 mOsm/kg and 303 mOsm/kg | osmotic pressure, Mean ([1]; 1.5%): 309.33 mOsm/kg | osmotic pressure, single measurements #1-#3 ([1]; 1.5%): 309 mOsm/kg and 312 mOsm/kg and 307 mOsm/kg | osmotic pressure, Mean ([1]; 4.5%): 338.33 mOsm/kg | osmotic pressure, single measurements #1-#3 ([1]; 4.5%): 338 mOsm/kg and 339 mOsm/kg | MPE (mean photo effect) (BALB/3T3 clone A31 cells): 0.003 | PIF (photo irradiation factor) (BALB/3T3 clone A31 cells): 1.000 | phototoxicity classification by PIF and MPE (BALB/3T3 clone A31 cells): non-phototoxic | IC50 UV (+Irr) (BALB/3T3 clone A31 cells; BALB/3T3 clone A31 cells, UVA 365 nm irradiation, neutral red): >1000 µg/mL | IC50 UV (−Irr) (BALB/3T3 clone A31 cells; BALB/3T3 clone A31 cells, without UV irradiation, neutral red): >1000 µg/mL | CFS (rabbit DED model; rabbit DED, 0.1% BID, Day 5): 7.17 ± 1.21 score | CFS (rabbit DED model; rabbit DED, 0.1% BID, Day 10): 6.67 ± 0.56 score | CFS (rabbit DED model; rabbit DED, 0.2% BID, Day 5): 6.83 ± 0.64 score | CFS (rabbit DED model; rabbit DED, 0.2% BID, Day 10): 6.17 ± 0.55 score | CFS (rabbit DED model; rabbit DED, 0.4% BID, Day 5): 5.67 ± 0.38 score | CFS (rabbit DED model; rabbit DED, 0.4% BID, Day 10): 3.83 ± 0.64 score | CFS (rabbit DED model; rabbit, 0.1% group, Baseline (before BAC treatment)): 0.00 ± 0.00 score | CFS (rabbit DED model; rabbit, 0.1% group, Day 0 (EDE), before treatment): 6.67 ± 0.30 score | CFS (rabbit DED model; rabbit, 0.2% group, Baseline (before BAC treatment)): 0.00 ± 0.00 score | CFS (rabbit DED model; rabbit, 0.2% group, Day 0 (EDE), before treatment): 9.17 ± 0.37 score | dynamic slope of the CFS score change (rabbit DED model; rabbit, 0.2%): −0.42 | CFS (rabbit DED model; rabbit, 0.4% group, Baseline (before BAC treatment)): 0.00 ± 0.00 score | CFS (rabbit DED model; rabbit, 0.4% group, Day 0 (EDE), before treatment): 8.00 ± 0.62 score | mean CFS score lower than that of the 0.05% cyclosporine treated animals (rabbit DED model; rabbit, 0.4%, Day 10, p=0.0558): approximately 46% | dynamic slope of the CFS score change (rabbit DED model; rabbit, 0.4%): −0.33 | Tear volume ([2]; 0.001% eye drops three times a day, Day 5): 0.024 ± 0.003 µL | Tear volume ([2]; 0.001% eye drops three times a day, Day 10): 0.021 ± 0.002 µL | Tear volume ([2]; 0.01% eye drops three times a day, Day 5): 0.026 ± 0.003 µL | Tear volume ([2]; 0.01% eye drops three times a day, Day 10): 0.027 ± 0.003 µL | Tear volume ([2]; 0.1% eye drops three times a day, Day 5): 0.028 ± 0.002 µL | Tear volume ([2]; 0.1% eye drops three times a day, Day 10): 0.032 ± 0.004 µL
